Like-named read-outs stand apart in the source and are kept apart here. *1 amine or outer side, *2 acyl side, *3 side chain or, on linkers, in order; H or OH if unused. Where a SMILES comes first, the peptide text is derived from it. Bridges are numbered along the chain shown (N, C = ends). [ ]: non-standard residue; d: D form. The star is where a group is joined. Leu(3R-O(AcLeu(3R-OH))) = CC(=O)N[C@H](C(=O)O[C@H](C(C)C)[C@H](N)C(=O)O)[C@H](O)C(C)C; Leu(3R-OH,Nα-propionyl) = CCC(=O)N[C@H](C(=O)*)[C@H](O)C(C)C; X1 = CC(C)[C@@H](O[*:3])[C@H](N[*:1])C(=O)[*:2]; NMeT = CN[C@H](C(=O)O)[C@@H](C)O; dPhLac = O=C(O)[C@H](O)Cc1ccccc1; NMeA = CN[C@@H](C)C(=O)O; NMeDha = C=C(NC)C(=O)O
Assays:
[1] = system: Gq signalling via recombinantly expressed human P2Y1 receptor; assay: Calcium mobilization assay, ADP-induced (P2Y1 receptor) in 1321N1 astrocytoma cells; format: cell-based; conditions: Homo sapiens; versus ADP (EC80), P2Y1 receptor, 1321N1 astrocytoma cells; read-out: pIC50, inhibition of calcium mobilization (converted)
Procedure: The functional activity of YM, FR, and Ebselen as Gq protein inhibitors was determined by assessing their ability to antagonize ADP‐induced calcium mobilization in 1321N1 astrocytoma cells stably transfected with the human P2Y1 receptor, which is a Gq‐coupled receptor. In addition, the compounds' inhibitory effects on Carbachol‐induced calcium mobilization were studied in the same cell line, which endogenously express the Gq‐coupled muscarinic M3 ACh receptor. The assays were performed according to a previously described procedure (Rafehi et al., 2017) using a NOVOstar microplate reader (BMG Labtech, Offenburg, Germany).

mouse Gαq = biological target: T1, mouse Gαq (Mus musculus, UniProt P21279, D130A/E125D/N126V/V129Y/Y128D); assay: Competition binding at membranes of HEK-CRISPR-Cas9-Gαq-KO cells expressing Gαq
T1 construct: expressed in transfected cells; membrane preparations
T1 sequence (P21279 1-359 E125D/N126V/Y128D/V129Y/D130A): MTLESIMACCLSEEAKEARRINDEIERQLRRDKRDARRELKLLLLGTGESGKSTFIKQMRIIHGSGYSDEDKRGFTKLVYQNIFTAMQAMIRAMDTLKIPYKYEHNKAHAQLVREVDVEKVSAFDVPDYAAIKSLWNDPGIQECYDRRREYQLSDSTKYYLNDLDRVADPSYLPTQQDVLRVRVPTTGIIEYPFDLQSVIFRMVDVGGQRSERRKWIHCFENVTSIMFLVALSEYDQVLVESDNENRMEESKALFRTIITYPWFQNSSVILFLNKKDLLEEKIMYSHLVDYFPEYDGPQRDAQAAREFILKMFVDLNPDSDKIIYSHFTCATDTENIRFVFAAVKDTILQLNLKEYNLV
Procedure: (§1) cDNAs encoding for the α‐subunits of the human G11, G14, G15 and mouse Gq guanine nucleotide‐binding proteins in a pcDNA3.1(+) vector were obtained from E. Kostenis. CRISPR/Cas9‐Gαq‐knockout (KO) HEK293 cells were from M. Yamaguchi. The protein sequences of the human and mouse Gαq proteins differ only by one amino acid in position 171 (alanine in human and serine in mouse). […]. After 16 hr, 3 ml of DMEM containing 10% FBS, 1% of a penicillin/streptomycin solution (final concentrations: penicillin = 100 U·ml^−1, streptomycin = 0.1 mg·ml^−1), and sodium butyrate (5 mM) was added to the packaging cells. They were kept at 32°C and 5% CO2 for 48 hr, during which the viral vectors containing the receptor sequence were produced and released into the surrounding medium. These were harvested, filtered ([…] filter pore diameter), and added to HEK293 cells that had previously been modified via CRISPR/Cas9 genome editing to lack Gαq expression. Polybrene solution (6 μl, 4 mg·ml^−1 in H2O, filtered) was added. After 2.5 hr, the virus‐containing medium was discarded, and DMEM supplemented with 10% FBS and 1% of a penicillin/streptomycin solution (final concentrations: penicillin = 100 U·ml^−1, streptomycin = 0.1 mg·ml^−1) was given to the cells. These were incubated for 2 days, followed by selection of successfully transfected cells with geneticin resistance by adding G418 (200 μg·ml^−1) to the medium. The cells were cultured in these media at 37°C and 10% CO2 until membrane preparations were generated.
(§2) Recombinant HEK cells were cultured to 70% of confluence. The culture medium was discarded, and cells were washed once with approximately 5 ml of PBS. Dishes were stored at −20°C until further use. After defrosting, cells were detached with a rubber scraper after adding 5‐mM Tris–HCl, 2‐mM EDTA, pH 7.4. The collected cell suspension was homogenized using an Ultra‐Turrax® for 1 min at a speed level of 4. The cell suspension was transferred into tubes and centrifuged for 10 min at 1,000 g, 4°C. The pellet (P1) was discarded, and the supernatant was centrifuged for 45 min at 48,400 g, 4°C. The resulting supernatant was discarded, and the pellet (P2) was resuspended in 50‐mM Tris–HCl, pH 7.4, and centrifuged again for 45 min at 48,400 g, 4°C. This step was repeated once again, and the suspension was subsequently homogenized using an Ultra‐Turrax® for 1 min at a speed level of 4 (IKA Laborechnik), transferred into cryovials, and stored at −80°C (for up to several months). […]
(§3) The experiments were performed in 50‐mM Tris–HCl buffer, pH 7.4. […] Non‐specific binding was determined in the presence of 5‐μM FR. […] Luma Safe® scintillation cocktail (2.5 ml) was added, and after 6 hr of incubation, the samples were counted for 1 min each, using a liquid scintillation counter (counting efficiency 53%). […]

human Gα14 = biological target: T2, human Gα14 (Homo sapiens, UniProt O95837); assay: Competition binding at membranes of HEK-CRISPR-Cas9-Gαq-KO cells expressing Gα14
T2 construct: expressed in transfected cells; membrane preparations
T2 sequence (O95837 1-355): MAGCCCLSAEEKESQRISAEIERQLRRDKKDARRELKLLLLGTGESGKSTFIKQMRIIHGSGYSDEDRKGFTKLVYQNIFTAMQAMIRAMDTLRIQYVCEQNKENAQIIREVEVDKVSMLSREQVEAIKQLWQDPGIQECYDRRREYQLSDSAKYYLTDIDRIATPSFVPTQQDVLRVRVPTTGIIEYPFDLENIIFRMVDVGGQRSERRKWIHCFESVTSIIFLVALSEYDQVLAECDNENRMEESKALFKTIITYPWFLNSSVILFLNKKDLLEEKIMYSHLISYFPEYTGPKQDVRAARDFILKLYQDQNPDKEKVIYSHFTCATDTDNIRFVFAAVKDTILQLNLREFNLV
Procedure: as §1, §2, §3

SMILES	IC50 [1] [nM]	Pseudo-Bmax ± SD (mouse Gαq; YM versus [³H]PSB-16254 (5 nM), 37°C, Gq) [pmol/mg]	IC50 (mouse Gαq; YM versus [³H]PSB-16254 (5 nM), 37°C, Gq, read-out: pIC50 ± SD (converted)) [nM]	Pseudo-Bmax ± SD (human Gα14; YM versus [³H]PSB-16254 (5 nM), 37°C, G14) [pmol/mg]	IC50 (human Gα14; YM versus [³H]PSB-16254 (5 nM), 37°C, G14, read-out: pIC50 ± SD (converted)) [nM]	IC50 (mouse Gαq) [nM]	Pseudo-Bmax ± SD (mouse Gαq; FR versus [³H]PSB-15900 (5 nM), 37°C, Gq) [pmol/mg]	IC50 (human Gα14) [nM]	Pseudo-Bmax ± SD (human Gα14; FR versus [³H]PSB-15900 (5 nM), 37°C, G14) [pmol/mg]
C=C1C(=O)N[C@@H](C)C(=O)N(C)[C@@H](C)C(=O)N[C@@H]([C@H](OC(=O)[C@@H](NC(C)=O)[C@H](O)C(C)C)C(C)C)C(=O)N(C)[C@@H]([C@@H](C)OC)C(=O)O[C@H](C)[C@H](NC(C)=O)C(=O)O[C@H](Cc2ccccc2)C(=O)N1C [YM, YM‐254890] (Ac-T[dPhLac][NMeDha]A[NMeA][Leu(3R-O(AcLeu(3R-OH)))][NMeT](Me); ester 1-C)	0.955	6.04 ± 1.43	6.17	3.18 ± 0.48	6.61				
C=C1C(=O)N[C@@H](C)C(=O)N(C)[C@@H](C)C(=O)N[C@@H]([C@H](OC(=O)[C@@H](NC(=O)CC)[C@H](O)C(C)C)C(C)C)C(=O)N(C)[C@@H]([C@@H](C)OC)C(=O)O[C@H](C(C)C)[C@H](NC(C)=O)C(=O)O[C@H](Cc2ccccc2)C(=O)N1C [FR, FR900359] (Ac-[X1][dPhLac][NMeDha]A[NMeA][X1](Leu(3R-OH,Nα-propionyl))[NMeT](Me); ester 1-C)	0.692					13.2	6.09 ± 0.59	10	4.37 ± 0.71
